{
  "source": "patent US5270047A",
  "about": "“Local delivery of dipyridamole for the treatment of proliferative diseases” (priority 1991, dated 1993)",
  "origin": "cited, not measured here",
  "data": [
    {"test_system": "vascular restenosis", "details": "current pharmacologic therapies after PTCA, atherectomy, laser angioplasty, bypass graft surgery; cited from earlier work", "values": [
      {"compound": "CC(=O)Oc1ccccc1C(=O)O", "note": "[aspirin]", "effect for the treatment and prevention of vascular restenosis": "ineffective for the treatment and prevention of vascular restenosis"},
      {"compound": "O=c1ccc2ccccc2o1", "note": "[coumarin]", "effect for the treatment and prevention of vascular restenosis": "ineffective for the treatment and prevention of vascular restenosis"},
      {"compound": "CCCCC[C@H](O)/C=C/[C@@H]1[C@H]2C/C(=C/CCCC(=O)O)O[C@H]2C[C@H]1O", "note": "[prostacyclin]", "effect for the treatment and prevention of vascular restenosis": "ineffective for the treatment and prevention of vascular restenosis"},
      {"compound": "heparin", "effect for the treatment and prevention of vascular restenosis": "ineffective for the treatment and prevention of vascular restenosis"},
      {"compound": "low molecular weight heparin", "effect for the treatment and prevention of vascular restenosis": "ineffective for the treatment and prevention of vascular restenosis"}
    ]}
  ]
}
